Each structure is given as a SMILES string. pIC50, pKd, pKi: −log10 of the molar value.

The target of the first experiment is T1, Replicase polyprotein 1ab (Severe acute respiratory syndrome coronavirus 2, UniProt P0DTD1). Kind of experiment: Inhibition of SARS-CoV2 PLpro extracted from Escherichia coli using Z-RLRGG-AMC as substrate incubated for 30 mins by fluorescence based analysis.
The term pIC50 denotes the negative decadic logarithm of the IC50, by convention in mol/L. Compound `Cc1ccc(NC(=O)[C@@H](N)CCCCN)cc1C(=O)N[C@H](C)c1cccc2ccccc12` gave a negative-log IC50 (pIC50) of 5.77. On the same count and under the same terms, as for `Cc1ccc(Nc2ccncc2)cc1C(=O)N[C@H](C)c1cccc2ccccc12`, the figure is 5.77; as for `Cc1ccc(NC(=O)C2CN(C)C2)cc1C(=O)N[C@H](C)c1cccc2ccccc12`, 5.81; as for `Cc1ccc(NC(=O)[C@@H](N)CN)cc1C(=O)N[C@H](C)c1cccc2ccccc12`, 5.80. On the same count and under the same terms, the value for `CNCCCNc1ccc(C)c(C(=O)N[C@H](C)c2cccc3ccccc23)c1` was 5.82; that for `Cc1ccc(NC(=O)N2CCCN(C)CC2)cc1C(=O)N[C@H](C)c1cccc2ccccc12` was 5.82.

Compound `Cc1ccc(NC(=O)N2CCN(C)CC2)cc1C(=O)N[C@H](C)c1cccc2ccccc12` gave a pIC50 of 5.80. Still for that read-out and setting: as for `Cc1ccc(NCC2CCNC2)cc1C(=O)N[C@H](C)c1cccc2ccccc12` (mixture of isomers), the figure is 5.82; as for `Cc1ccc(NC(=O)C2CN(C)CCN2)cc1C(=O)N[C@H](C)c1cccc2ccccc12` (mixture of isomers), 5.77.

Another experiment has as its target T1, Replicase polyprotein 1ab. Kind of experiment: Inhibition of SARS-CoV-2 Main protease extracted from Escherichia coli BL21 (DE3) cells measured for 60 mins by FRET based analysis.
The compound `Cc1ccc(NCC2(C)CCN2)cc1C(=O)N[C@H](C)c1cccc2ccccc12` (mixture of isomers) had a pIC50 of 6.10.

For the compound `Cc1ccc(NC(=O)C2CN(C(C)C)CCN2)cc1C(=O)N[C@H](C)c1cccc2ccccc12` (mixture of isomers), the pIC50 is 5.85.

A further experiment has as its target T1, Replicase polyprotein 1ab. Kind of experiment: Inhibition of SARS-CoV-2 3CL protease extracted from Escherichia coli BL21 (DE3) Rosetta cells using DabcylKNSTLQSGLRKE-Edan as substrate preincubated for 60 mins followed by substrate addition and measured after 20 mins by FRET assay.
In turn, `CCC(C(=O)Nc1cc(NC2CCOCC2)ccc1C)n1cccc2nc(SCc3ccc(F)cc3)nc1-2` (racemic) had a pIC50 of 6.22. On the same count and under the same terms, as for `CCC(C(=O)Nc1cc(NC2CCOC2)ccc1C)n1cc(F)cc2nc(SCc3ccc(F)cc3)nc1-2` (racemic), the figure is 5.73; as for `CCC(C(=O)Nc1cc(NC2CCOC2)ccc1C)n1cc(Cl)cc2nc(SCc3ccc(F)cc3)nc1-2` (racemic), 6.80. On the same count and under the same terms, the value for `CCC(C(=O)Nc1cc(NC2CCOCC2)ccc1C)n1cc(F)cc2nc(SCc3ccc(F)cc3)nc1-2` (racemic) was 5.85. On the same count and under the same terms, as for `CCC(C(=O)Nc1cc(NC2COC2)ccc1C)n1cccc2nc(SCc3ccc(F)cc3)nc1-2` (racemic), the figure is 6.52; as for `CCC(C(=O)Nc1ccccc1C)n1cc(F)cc2nc(SCc3ccc(F)cc3)nc1-2` (racemic), 5.29.

A further experiment addresses T1, Replicase polyprotein 1ab. Kind of experiment: Binding affinity to SARS-CoV-2 3CL protease assessed as dissociation constant by SPR analysis. In general terms: SPR reads the build-up and loss of mass on a sensor chip optically.
By pKd is commonly meant the negative decadic logarithm of the Kd, by convention in mol/L. Regarding `CCC(C(=O)Nc1cc(NC2CCNC2)ccc1C)n1cccc2nc(SCc3ccc(F)cc3)nc1-2` (racemic), the pKd is 6.60.

The target in another experiment is T1, Replicase polyprotein 1ab. Put plainly: Inhibition of SARS-CoV-2 papain-like protease.
`C#CC(=O)NNC(=O)CCc1ccccc1C(=O)N[C@H](C)c1cccc2ccccc12` showed a pIC50 of 7.05. Still for that read-out and setting: the value for `Cc1ccc(N2CCN(CCC(=O)O)CC2)cc1C(=O)NC1(c2cccc3ccccc23)CC1` was 6.96. In turn, `Cc1ccc(N2CCNCC2)cc1C(=O)NC1(c2cccc3ccccc23)CC1` showed a pIC50 of 7.52. On to `Cc1ccc(N2CCN(C)CC2)cc1C(=O)NC1(c2cccc3ccccc23)CC1`, for which the pIC50 was 7.70. On the same count and under the same terms, the value for `Cc1ccc(N2C[C@H]3C[C@@H](C2)N3)cc1C(=O)NC1(c2cccc3ccccc23)CC1` was 7.70; that for `Cc1ccc(N2CC3CN(C)CC3C2)cc1C(=O)NC1(c2cccc3ccccc23)CC1` (centres undefined) was 6.89.

As for `Cc1ccc(N2CCN(C(=N)N)CC2)cc1C(=O)NC1(c2cccc3ccccc23)CC1`, the pIC50 was 6.85.

For `Cc1ccc(N)cc1C(=O)NC1(c2cccc3ccccc23)CC1`, the pIC50 is 6.74. The same measure, in the same setting: as for `CC(=O)Nc1cccc(Nc2ccc(C)c(C(=O)NC3(c4cccc5ccccc45)CC3)c2)c1`, the figure is 6.30; as for `Cc1ccc(N2CCNC(C)C2)cc1C(=O)NC1(c2cccc3ccccc23)CC1` (centres undefined), 7.15. Still for that read-out and setting: as for `Cc1ccc(N2CC3CNCC3C2)cc1C(=O)NC1(c2cccc3ccccc23)CC1` (centres undefined), the figure is 7.52. In turn, `Cc1ccc(N2CCN(CC(=O)O)CC2)cc1C(=O)NC1(c2cccc3ccccc23)CC1` gave a pIC50 of 7.40. The compound `Cc1ccccc1C(=O)NC(C)c1cccc2ccccc12` (racemic) gave a negative-log IC50 (pIC50) of 4.63.

In another experiment the target is T1, Replicase polyprotein 1ab. Kind of experiment: Inhibition of SARS-CoV-2 papain-like protease (PLpro) extracted from Escherichia coli BL21 (DE3) cells using RLRGG-AMC as substrate preincubated for 10 mins followed by substrate addition measured for 35 mins by FRET analysis.
`Cc1ccc(NC(=O)CN2CCCCC2)cc1C(=O)N[C@H](C)c1cccc2ccccc12` had a pIC50 of 5.74. The compound `Cc1ccc(NC(=O)CCN)cc1C(=O)N[C@H](C)c1cccc2ccccc12` showed a pIC50 of 5.74.

The compound `Cc1ccc(NC2CCN(S(C)(=O)=O)CC2)cc1C(=O)N[C@H](C)c1cccc2ccccc12` gave a pIC50 of 5.72. `Cc1ccc(NC(=O)[C@@H](CN)NC[C@@H]2CCCN2)cc1C(=O)N[C@H](C)c1cccc2ccccc12` had a pIC50 of 5.72. Same read-out and setting: the value for `Cc1ccc(NC(=O)[C@@]2(C)CCCN2)cc1C(=O)N[C@H](C)c1cccc2ccccc12` was 5.74.

Turning to `Cc1ccc(NC2CCN(C[C@H]3CCCN3)CC2)cc1C(=O)N[C@H](C)c1cccc2ccccc12`, the pIC50 was 5.74. Same read-out and setting: as for `Cc1ccc(NC(=O)[C@@H](N)CCN)cc1C(=O)N[C@H](C)c1cccc2ccccc12`, the figure is 5.72; as for `Cc1ccc(NCC(C)(C)N)cc1C(=O)N[C@H](C)c1cccc2ccccc12`, 5.74. In turn, `Cc1ccc(NC(=O)C2CN(C)CCN2C)cc1C(=O)N[C@H](C)c1cccc2ccccc12` (mixture of isomers) showed a pIC50 of 5.77. On to `Cc1ccc(NC(=O)C2CCN2)cc1C(=O)N[C@H](C)c1cccc2ccccc12` (mixture of isomers), for which the pIC50 is 5.74.

The next experiment concerns the target T1, Replicase polyprotein 1ab. Put plainly: Binding affinity to SARS-CoV-2 papain-like protease extracted from Escherichia coli BL21 (DE3) cells assessed as inhibition constant by SPR analysis.
What is called pKi is −log10 of the Ki, conventionally taken in molar units. Regarding `Cc1ccc(OCCN(C)C)cc1C(=O)N[C@H](C)c1cc(-c2cnn(C)c2)cc(-c2cncs2)c1`, the pKi was 7.52.

As to `Cc1ccc(OCCN(C)C)cc1C(=O)N[C@H](C)c1cc(-c2cnn(C)c2)cc(-c2cnn(CCN3CCOCC3)c2)c1`, the pKi is 7.70.

As for `Cc1ccc(OCCN(C)C)cc1C(=O)N[C@H](C)c1cc(-c2cnn(C)c2)cc(-c2cnn(C(C)C)c2)c1`, the pKi was 7.40. In the case of `Cc1ccc(OCCN(C)C)cc1C(=O)N[C@H](C)c1cc(-c2cnn(C)c2)cc(-c2ccn(C)n2)c1`, the pKi is 7.40. In the case of `Cc1ccc(OCCN(C)C)cc1C(=O)N[C@H](C)c1cc(-c2cnn(C)c2)cc(-c2cnn(C(F)F)c2)c1`, the pKi was 7.52. The same measure, in the same setting: as for `Cc1ccc(OCCN(C)C)cc1C(=O)N[C@H](C)c1cc(-c2cnn(CF)c2)cc(-c2ccn(C)n2)c1`, the figure is 7.52.

`Cc1ccc(OCCN(C)C)cc1C(=O)N[C@H](C)c1cc(-c2cnn(C)c2)cc(-c2cnn(C3CC3)c2)c1`: the pKi was 7.52.

Turning to `Cc1ccc(OCCN(C)C)cc1C(=O)N[C@H](C)c1cc(-c2cnn(CCN3CCOCC3)c2)cc(-c2ccn(C)n2)c1`, the pKi was 7.40. Same read-out and setting: the value for `Cc1ccc(OCCN(C)C)cc1C(=O)N[C@H](C)c1cc(-c2cccs2)cc(-c2ccc(CN)s2)c1` was 7.15; that for `COCn1cc(-c2cc(-c3cnn(C(F)F)c3)cc([C@@H](C)NC(=O)c3cc(OCCN(C)C)ccc3C)c2)cn1` was 7.10.

The target in the next experiment is T1, Replicase polyprotein 1ab. Put plainly: Inhibition of SARS-CoV-2 Main protease.
Compound `Cc1ccc(NC(=O)CN)cc1C(=O)N[C@H](C)c1cccc2ccccc12` gave a pIC50 of 5.48.

As for `Cc1ccc(NC(=O)[C@H]2CCCCN2)cc1C(=O)N[C@H](C)c1cccc2ccccc12`, the pIC50 was 6.52.

As for `Cc1ccc(NC[C@H]2CCCCN2)cc1C(=O)N[C@H](C)c1cccc2ccccc12`, the pIC50 is 5.85.

With `Cc1ccc(NC(N)=O)cc1C(=O)N[C@H](C)c1cccc2ccccc12`, the pIC50 was 5.42.

`Cc1ccc(NC[C@H]2CCCN2)cc1C(=O)N[C@H](C)c1cccc2ccccc12` showed a pIC50 of 6.05. `Cc1ccc(NC(=O)C2(N)CC2)cc1C(=O)N[C@H](C)c1cccc2ccccc12`: the pIC50 was 5.42.

In turn, `Cc1ccc(NC[C@@H]2CCCN2)cc1C(=O)N[C@H](C)c1cccc2ccccc12` gave a pIC50 of 6.10. Still for that read-out and setting: as for `Cc1ccc(NC(=O)[C@@H]2CCCCN2)cc1C(=O)N[C@H](C)c1cccc2ccccc12`, the figure is 5.89; as for `Cc1ccc(NC[C@@H]2CCCCN2)cc1C(=O)N[C@H](C)c1cccc2ccccc12`, 6.05; as for `Cc1ccc(NC[C@@H]2CCCN2C)cc1C(=O)N[C@H](C)c1cccc2ccccc12`, 6.05. `Cc1ccc(NCC2CCN2)cc1C(=O)N[C@H](C)c1cccc2ccccc12` (mixture of isomers) had a pIC50 of 6.05.

A further experiment deals with T1, Replicase polyprotein 1ab. Put plainly: Inhibition of SARS-CoV-2 papain-like protease (PLpro) by FRET analysis.
With `Cc1ccc(NC2CCN(C)CC2)cc1C(=O)N[C@H](C)c1cc(-c2cccs2)cc(-c2cccs2)c1`, the pIC50 is 6.74. Same read-out and setting: as for `Cc1ccc(NCCN2CCCCC2)cc1C(=O)N[C@H](C)c1cc(-c2cccs2)cc(-c2cccs2)c1`, the figure is 6.96. Same read-out and setting: as for `Cc1ccc(NC2CNC2)cc1C(=O)N[C@H](C)c1cc(-c2cccs2)cc(-c2cccs2)c1`, the figure is 6.77. Same read-out and setting: as for `Cc1ccc(OCCN)cc1C(=O)N[C@H](C)c1cc(-c2cccs2)cc(-c2cccs2)c1`, the figure is 7.22; as for `Cc1ccc(OCCN2CCOCC2)cc1C(=O)N[C@H](C)c1cc(-c2cccs2)cc(-c2cccs2)c1`, 6.44; as for `Cc1ccc(NC(=O)CN(C)C)cc1C(=O)N[C@H](C)c1cc(-c2cccs2)cc(-c2cccs2)c1`, 6.96. `Cc1ccc(NCC2CNC2)cc1C(=O)N[C@H](C)c1cc(-c2cccs2)cc(-c2cccs2)c1` gave a pIC50 of 6.47. Still for that read-out and setting: the value for `Cc1ccc(NC(=O)CN)cc1C(=O)N[C@H](C)c1cc(-c2cccs2)cc(-c2cccs2)c1` was 6.85.

The compound `Cc1ccc(NC(=O)C2CCNCC2)cc1C(=O)N[C@H](C)c1cc(-c2cccs2)cc(-c2cccs2)c1` gave a pIC50 of 6.79. Same read-out and setting: as for `Cc1ccc(OCCN2CCCC2)cc1C(=O)N[C@H](C)c1cc(-c2cccs2)cc(-c2cccs2)c1`, the figure is 7.15; as for `Cc1ccc(OCC[N+](C)(C)C)cc1C(=O)N[C@H](C)c1cc(-c2cccs2)cc(-c2cccs2)c1`, 6.89. The same measure, in the same setting: as for `Cc1ccc(N)cc1C(=O)N[C@H](C)c1cc(-c2cccs2)cc(-c2cccs2)c1`, the figure is 6.77.

The values above are taken from ChEMBL document CHEMBL6092147, “Design of inhibitors of SARS-CoV-2 papain-like protease deriving from GRL0617: Structure-activity relationships” (Bioorg Med Chem, 2024).
